# Experimental data taken from ChEMBL document CHEMBL4400520, “Benzofuran-isatin-imine hybrids tethered via different length alkyl linkers: Design, synthesis and in vitro evaluation of anti-tubercular and anti-bacterial activities as well as cytotoxicity” (Eur J Med Chem, 2019).
# Legend:
# Staphylococcus aureus [1] = experiment: Antibacterial activity against methicillin-resistant Staphylococcus aureus; format: functional
# [2] = Selectivity index, ratio of CC50 for African green monkey Vero cells to MIC for Mycobacterium tuberculosis H37Rv; format: toxicity; details: read-out: Selectivity Index
# [3] = system: Acinetobacter calcoaceticus; experiment: Antibacterial activity against Acinetobacter calcoaceticus; format: functional
# Staphylococcus aureus [4] = experiment: Antibacterial activity against methicillin-sensitive Staphylococcus aureus; format: functional
# Enterococcus faecium = experiment: Antibacterial activity against Enterococcus faecium; format: functional
# [5] = system: Staphylococcus epidermidis; experiment: Antibacterial activity against methicillin-resistant Staphylococcus epidermidis; format: functional
# Enterococcus faecalis = experiment: Antibacterial activity against Enterococcus faecalis; format: functional
# [6] = system: Staphylococcus epidermidis; experiment: Antibacterial activity against methicillin-sensitive Staphylococcus epidermidis; format: functional
# Vero = experiment: (§1) Cytotoxicity against African green monkey Vero cells assessed as reduction in cell viability after 72 hrs by MTT assay; format: cell-based; details: chlorocebus sabaeus, vero, 72 h
# [7] = system: Mycobacterium tuberculosis; experiment: Antitubercular activity against Mycobacterium tuberculosis H37Rv; format: functional
# Enterobacter cloacae = experiment: Antibacterial activity against Enterobacter cloacae; format: functional
# Klebsiella aerogenes = experiment: Antibacterial activity against Enterobacter aerogenes; format: functional
# Pseudomonas aeruginosa = experiment: Antibacterial activity against Pseudomonas aeruginosa ATCC 27853; format: functional
# Escherichia coli = experiment: Antibacterial activity against Escherichia coli; format: functional
# Klebsiella pneumoniae = experiment: Antibacterial activity against Klebsiella pneumoniae; format: functional
# Citrobacter freundii = experiment: Antibacterial activity against Citrobacter freundii; format: functional
# Proteus mirabilis = experiment: Antibacterial activity against Proteus mirabilis; format: functional
# [8] = Cmax in ICR mouse at 25 mg/kg, po; format: ADME, organism-based; design: dose 25 mg/kg, route oral; details: in vivo
# [9] = Tmax in ICR mouse at 25 mg/kg, po; format: ADME, organism-based; details: in vivo
# [10] = as §1; format: cell-based; details: chlorocebus sabaeus, Vero cells
# [11] = Half life in ICR mouse at 25 mg/kg, po; format: ADME, organism-based; details: in vivo
# [12] = Metabolic stability in mouse assessed as half life; format: ADME
# [13] = AUC (0 to infinity) in ICR mouse at 25 mg/kg, po; format: ADME, organism-based; design: dose 25 mg/kg, time infinity, route oral; details: in vivo
SMILES,MIC90 (Staphylococcus aureus [1]),selectivity ratio [2],MIC90 [3],MIC90 (Staphylococcus aureus [4]),MIC90 (Enterococcus faecium),MIC90 [5],MIC90 (Enterococcus faecalis),MIC90 [6],MIC [7],MIC90 (Enterobacter cloacae),MIC90 (Klebsiella aerogenes),MIC90 (Pseudomonas aeruginosa),MIC90 (Escherichia coli),MIC90 (Klebsiella pneumoniae),MIC90 (Citrobacter freundii),MIC90 (Proteus mirabilis),Cmax [8],Tmax [9],CC50 at 72 h [10],AUC(0-inf) [13],further results
CCO/N=C1\C(=O)N(CCCCOc2ccc3oc(-c4ccc(OC)cc4)c(C(=O)OCC)c3c2)c2ccc(F)cc21,4 µg/mL,410,8 µg/mL,8 µg/mL,32 µg/mL,16 µg/mL,4 µg/mL,1 µg/mL,0.156 µg/mL,0.25 µg/mL,0.5 µg/mL,8 µg/mL,0.5 µg/mL,2 µg/mL,0.5 µg/mL,0.25 µg/mL,–,–,–,–,CC50 (Vero): 32 µg/mL
CNC(=O)c1c(-c2ccc(O)cc2)oc2ccc(O)c(CN3CCCCC3)c12,–,> 64000,–,–,–,–,–,–,< 0.016 µg/mL,–,–,–,–,–,–,–,5060 ng/mL,3.46 h,> 1020 µg/mL,39300 ng·h/mL,half-life [11]: 9.88 h; half-life [12]: > 1 h
CCOC(=O)c1c(-c2ccccc2)oc2ccc(OCCCCN3C(=O)/C(=N\OC)c4cc(F)ccc43)cc12,2 µg/mL,516,1 µg/mL,1 µg/mL,8 µg/mL,1 µg/mL,2 µg/mL,0.25 µg/mL,0.062 µg/mL,1 µg/mL,0.125 µg/mL,0.5 µg/mL,0.125 µg/mL,0.25 µg/mL,0.25 µg/mL,0.25 µg/mL,–,–,–,–,CC50 (Vero): 64 µg/mL
CCOC(=O)c1c(-c2ccc(OC)cc2)oc2ccc(OCCCCN3C(=O)/C(=N\OC)c4ccccc43)cc12,1 µg/mL,> 2000,1 µg/mL,1 µg/mL,8 µg/mL,0.5 µg/mL,1 µg/mL,0.125 µg/mL,< 0.016 µg/mL,0.25 µg/mL,0.06 µg/mL,4 µg/mL,0.5 µg/mL,0.25 µg/mL,0.25 µg/mL,0.125 µg/mL,927 ng/mL,1.65 h,32 µg/mL,3020 ng·h/mL,half-life [11]: 3.33 h; half-life [12]: 0.32 h
O=C(O)c1cn(C2CC2)c2cc(N3CCNCC3)c(F)cc2c1=O [CIPROFLOXACIN],0.25 µg/mL,–,0.5 µg/mL,0.25 µg/mL,8 µg/mL,4 µg/mL,0.5 µg/mL,0.125 µg/mL,0.291 µg/mL,–,0.06 µg/mL,0.25 µg/mL,0.06 µg/mL,0.5 µg/mL,0.03 µg/mL,≤ 0.03 µg/mL,3130 ng/mL,1.8 h,512 µg/mL,17800 ng·h/mL,–
